Assays:
[1] = biological target: T1, recombinant human plasminogen activator inhibitor-1 (PAI-1) (Homo sapiens, UniProt P05121); experiment: Primary screen for the PAI-1 inhibition (chromogenic tPA activity assay); format: biochemical; settings: pH 6.6, 140 nM PAI-1, 70 nM tPA; for inhibition at 10 µM: 10 μM test compound; for inhibition at 25 µM: 25 μM test compound
T1 construct: purchased Molecular Innovations, Royal Oak, Mich
Experimental: Primary Screen for the PAI-1 Inhibition
Test compounds are dissolved in DMSO at a final concentration of 10 mM, then diluted 100× in physiologic buffer. The inhibitory assay is initiated by the addition of the test compound (1-100 μM final concentration, maximum DMSO concentration of 0.2%) in a pH 6.6 buffer containing 140 nM recombinant human plasminogen activator inhibitor-1 (PAI-1; Molecular Innovations, Royal Oak, Mich.). Following a 1 hour incubation at room temperature, 70 nM of recombinant human tissue plasminogen activator (tPA) is added, and the combination of the test compound, PAI-1 and tPA is incubated for an additional 30 minutes. Following the second incubation, Spectrozyme-tPA (American Diagnostica, Greenwich, Conn.), a chromogenic substrate for tPA, is added and absorbance read at 405 nm at 0 and 60 minutes. Relative PAI-1 inhibition is equal to the residual tPA activity in the presence of the test compound and PAI-1. Control treatments include the complete inhibition of tPA by PAI-1 at the molar ratio employed (2:1), and the absence of any effect of the test compound on tPA alone.

human PAI-1 = human PAI-1 (Homo sapiens, UniProt P05121); experiment: Assay for determining IC50 of inhibition of PAI-1 (tPA-coated plate, antibody detection of active PAI-1); format: binding; settings: active PAI-1 bound to tPA-coated plate; pH 7.5
Experimental: Assay for determining IC50 of Inhibition of PAI-1
This assay is based upon the non-SDS dissociable interaction between tPA and active PAI-1. Assay plates are initially coated with human tPA (10 μg/ml). Test compounds of the present invention are dissolved in DMSO at 10 mM, then diluted with physiologic buffer (pH 7.5) to a final concentration of […]. Test compounds are incubated with human PAI-1 (50 ng/ml) for 15 minutes at room temperature. The tPA-coated plate is washed with a solution of 0.05% Tween 20 and 0.1% BSA, then the plate is blocked with a solution of 3% BSA. An aliquot of the substituted sulfonamide indole/PAI-1 solution is then added to the tPA-coated plate, incubated at room temperature for 1 hour, and washed. Active PAI-1 bound to the plate is assessed by adding an aliquot of a 1:1000 dilution of the 33B8 monoclonal antibody against human PAI-1, and incubating the plate at room temperature for 1 hour (Molecular Innovations, Royal Oak, Mich.). The plate is again washed, and a solution of goat anti-mouse IgG-alkaline phosphatase conjugate is added at a 1:50,000 dilution in goat serum. The plate is incubated 30 minutes at room temperature, washed, and a solution of alkaline phosphatase substrate is added. The plate is incubated 45 minutes at room temperature, and color development is determined at OD405 nm. The quantitation of active PAI-1 bound to tPA at varying concentrations of the test compound is used to determine the IC50. Results are analyzed using a logarithmic best-fit equation. The assay sensitivity is 5 ng/ml of human PAI-1 as determined from a standard curve ranging from 0-100 ng/ml.

T1 sequence (P05121 24-402): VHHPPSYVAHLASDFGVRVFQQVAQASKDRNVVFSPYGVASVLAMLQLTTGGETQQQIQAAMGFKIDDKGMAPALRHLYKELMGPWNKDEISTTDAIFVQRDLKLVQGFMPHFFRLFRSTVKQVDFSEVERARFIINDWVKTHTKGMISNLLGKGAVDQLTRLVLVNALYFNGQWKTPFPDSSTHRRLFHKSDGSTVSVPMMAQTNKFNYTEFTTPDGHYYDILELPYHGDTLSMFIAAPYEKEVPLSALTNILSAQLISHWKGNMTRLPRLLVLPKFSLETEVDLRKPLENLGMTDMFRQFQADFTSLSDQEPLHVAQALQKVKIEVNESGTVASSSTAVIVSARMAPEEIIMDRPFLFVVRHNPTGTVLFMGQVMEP
Sequence of human PAI-1 (P05121 24-402): as above

SMILES | inhibition at 10 µM [1] | inhibition at 25 µM [1] | IC50 (human PAI-1)
O=C(O)c1c(-c2ccccc2)c2cc(NS(=O)(=O)c3ccc(OC(F)(F)F)cc3)ccc2n1Cc1ccccc1 [Example 1, 1-benzyl-3-phenyl-5-({[4-(trifluoromethoxy)phenyl]sulfonyl}amino)-1H-indole-2-carboxylic acid] | 33% | 81% | 8.3 µM
O=C(O)c1c(-c2ccccc2)c2cc(NS(=O)(=O)c3cccc4cccnc34)ccc2n1Cc1ccccc1 [Example 2, 1-benzyl-3-phenyl-5-[(quinolin-8-ylsulfonyl)amino]-1H-indole-2-carboxylic acid] | 8% | 43% | –
O=C(O)c1c(-c2ccccc2)c2cc(NS(=O)(=O)c3ccc(-c4ccccc4)cc3)ccc2n1Cc1ccccc1 [Example 4, 1-benzyl-5-[(1,1′-biphenyl-4-ylsulfonyl)amino]-3-phenyl-1H-indole-2-carboxylic acid] | 44% | 61% | 23 µM
Cn1c(C(=O)O)c(-c2ccccc2)c2cc(NS(=O)(=O)c3ccc(OC(F)(F)F)cc3)ccc21 [Example 5, 1-methyl-3-phenyl-5-({[4-(trifluoromethoxy)phenyl]sulfonyl}amino)-1H-indole-2-carboxylic acid] | – | 19% | –
Cn1c(C(=O)O)c(-c2ccccc2)c2cc(NS(=O)(=O)c3ccc(C(C)(C)C)cc3)ccc21 [Example 6, 5-{[(4-tert-butylphenyl)sulfonyl]amino}-1-methyl-3-phenyl-1H-indole-2-carboxylic acid] | – | 46% | –
CC(C)C[C@H](NC(=O)c1c(-c2ccccc2)c2cc(NS(=O)(=O)c3ccc(OC(F)(F)F)cc3)ccc2n1C)C(=O)O [Example 8, N-{[1-methyl-3-phenyl-5-({[4-(trifluoromethoxy)phenyl]sulfonyl}amino)-1H-indol-2-yl]carbonyl}-L-leucine] | 18% | 73% | –
Cn1c(C(=O)N[C@@H](Cc2ccccc2)C(=O)O)c(-c2ccccc2)c2cc(NS(=O)(=O)c3ccc(-c4ccccc4)cc3)ccc21 [Example 9, N-({5-[(1,1′-biphenyl-4-ylsulfonyl)amino]-1-methyl-3-phenyl-1H-indol-2-yl}carbonyl)-L-phenylalanine] | 8% | 73% | –
Cn1c(C(=O)N[C@@H](Cc2ccccc2)C(=O)O)c(-c2ccccc2)c2cc(NS(=O)(=O)c3ccc(C(C)(C)C)cc3)ccc21 [Example 11, N-[(5-{[(4-tert-butylphenyl)sulfonyl]amino}-1-methyl-3-phenyl-1H-indol-2-yl)carbonyl]-L-phenylalanine] | 15% | 77% | –
CS(=O)(=O)Nc1ccc2c(c1)c(-c1ccccc1)c(C(=O)O)n2Cc1ccc(-c2ccccc2)cc1 [Example 13, 1-(1,1′-biphenyl-4-ylmethyl)-5-[(methylsulfonyl)amino]-3-phenyl-1H-indole-2-carboxylic acid] | 24% | 62% | –
O=C(O)c1c(-c2ccccc2)c2cc(NS(=O)(=O)c3ccccc3)ccc2n1Cc1ccc(-c2ccccc2)cc1 [Example 14, 1-(1,1′-biphenyl-4-ylmethyl)-3-phenyl-5-[(phenylsulfonyl)amino]-1H-indole-2-carboxylic acid] | 77% | 87% | 28 µM
O=C(O)c1c(-c2ccccc2)c2cc(NS(=O)(=O)c3ccccc3)ccc2n1C(c1ccccc1)c1ccccc1 [Example 16, 1-benzhydryl-3-phenyl-5-[(phenylsulfonyl)amino]-1H-indole-2-carboxylic acid] | 68% | 89% | –
O=C(O)c1c(-c2ccc3[nH]ccc3c2)c2cc(NS(=O)(=O)c3ccccc3)ccc2n1Cc1ccccc1 [Example 18, 1-benzyl-5-[(phenylsulfonyl)amino]-1H,1′H-3,5′-biindole-2-carboxylic acid] | 19% | 55% | –
O=C(O)c1[nH]c2ccc(NS(=O)(=O)c3ccc(OC(F)(F)F)cc3)cc2c1-c1ccccc1 [Example 19, 3-phenyl-5-({[4-(trifluoromethoxy)phenyl]sulfonyl}amino)-1H-indole-2-carboxylic acid] | 12% | 50% | –
CC(C)(C)c1ccc(S(=O)(=O)Nc2ccc3[nH]c(C(=O)O)c(-c4ccccc4)c3c2)cc1 [Example 20, 5-{[(4-tert-butylphenyl)sulfonyl]amino}-3-phenyl-1H-indole-2-carboxylic acid] | 20% | 81% | 28.4 µM

More lines, now with the values ahead:

inhibition at 10 µM [1] | inhibition at 25 µM [1] | IC50 (human PAI-1) | SMILES
41% | 82% | 28.7 µM | CC(C)(C)c1ccc(S(=O)(=O)Nc2ccc3c(c2)c(-c2ccccc2)c(C(=O)O)n3Cc2ccccc2)cc1 [Example 3, 1-benzyl-5-{[(4-tert-butylphenyl)sulfonyl]amino}-3-phenyl-1H-indole-2-carboxylic acid]
11% | 68% | – | Cn1c(C(=O)O)c(-c2ccccc2)c2cc(NS(=O)(=O)c3ccc(-c4ccccc4)cc3)ccc21 [Example 7, 5-[(1,1′-biphenyl-4-ylsulfonyl)amino]-1-methyl-3-phenyl-1H-indole-2-carboxylic acid]
15% | 74% | – | CC(C)C[C@H](NC(=O)c1c(-c2ccccc2)c2cc(NS(=O)(=O)c3ccc(-c4ccccc4)cc3)ccc2n1C)C(=O)O [Example 10, N-({5-[(1,1′-biphenyl-4-ylsulfonyl)amino]-1-methyl-3-phenyl-1H-indol-2-yl}carbonyl)-L-leucine]
14% | 64% | – | CC(C)C[C@H](NC(=O)c1c(-c2ccccc2)c2cc(NS(=O)(=O)c3ccc(C(C)(C)C)cc3)ccc2n1C)C(=O)O [Example 12, N-[(5-{[(4-tert-butylphenyl)sulfonyl]amino}-1-methyl-3-phenyl-1H-indol-2-yl)carbonyl]-L-leucine]
10% | 36% | – | CS(=O)(=O)Nc1ccc2c(c1)c(-c1ccccc1)c(C(=O)O)n2C(c1ccccc1)c1ccccc1 [Example 15, 1-benzhydryl-5-[(methylsulfonyl)amino]-3-phenyl-1H-indole-2-carboxylic acid]
43% | 84% | – | CC(C)(C)c1ccc(-c2c(C(=O)O)n(Cc3ccccc3)c3ccc(NS(=O)(=O)c4ccc(OC(F)(F)F)cc4)cc23)cc1 [Example 17, 1-Benzyl-3-(4-tert-butylphenyl)-5-({[4-(trifluoromethoxy)phenyl]sulfonyl}amino)-1H-indole-2-carboxylic acid]
29% | 86% | 19.5 µM | O=C(O)c1[nH]c2ccc(NS(=O)(=O)c3ccc(-c4ccccc4)cc3)cc2c1-c1ccccc1 [Example 21, 5-[(1,1′-biphenyl-4-ylsulfonyl)amino]-3-phenyl-1H-indole-2-carboxylic acid]
